The source of these data is patent US9642789B2, “Methods for generating new hair follicles, treating baldness, and hair removal” (THE TRUSTEES OF THE UNIVERSITY OF PENNSYLVANIA, priority 2005, dated 2017).

The target of the assay is T1, EGF receptor (Mus musculus, UniProt Q01279).
T1 construct: from tissue; host or cells: healing skin wound of live mice
Description: EDIHN after single injection of EGF receptor inhibitor into wound. The class given is in vivo, mice. As to conditions: 150 μM in 10 μL, single injection 11 days after 1 cm^2 incisional wounding; K17 and AP staining. The method, then: To determine the effect of administration of EGF receptor inhibitors on DIHN, the inhibitor AG1478 (150 μM in 10 μL volume) was administered as a single injection 11 days after incisional wounding (1 cm^2) to the middle of the wound near the skin surface. […] Left panel: epidermis stained for K17, with three large hair follicles next to each other. Right panel: dermis stained for AP with large coalescing dermal papilla areas.

Entries after “also recorded” stand apart in the source; their conditions may differ.

T1 sequence (Q01279 25-1210): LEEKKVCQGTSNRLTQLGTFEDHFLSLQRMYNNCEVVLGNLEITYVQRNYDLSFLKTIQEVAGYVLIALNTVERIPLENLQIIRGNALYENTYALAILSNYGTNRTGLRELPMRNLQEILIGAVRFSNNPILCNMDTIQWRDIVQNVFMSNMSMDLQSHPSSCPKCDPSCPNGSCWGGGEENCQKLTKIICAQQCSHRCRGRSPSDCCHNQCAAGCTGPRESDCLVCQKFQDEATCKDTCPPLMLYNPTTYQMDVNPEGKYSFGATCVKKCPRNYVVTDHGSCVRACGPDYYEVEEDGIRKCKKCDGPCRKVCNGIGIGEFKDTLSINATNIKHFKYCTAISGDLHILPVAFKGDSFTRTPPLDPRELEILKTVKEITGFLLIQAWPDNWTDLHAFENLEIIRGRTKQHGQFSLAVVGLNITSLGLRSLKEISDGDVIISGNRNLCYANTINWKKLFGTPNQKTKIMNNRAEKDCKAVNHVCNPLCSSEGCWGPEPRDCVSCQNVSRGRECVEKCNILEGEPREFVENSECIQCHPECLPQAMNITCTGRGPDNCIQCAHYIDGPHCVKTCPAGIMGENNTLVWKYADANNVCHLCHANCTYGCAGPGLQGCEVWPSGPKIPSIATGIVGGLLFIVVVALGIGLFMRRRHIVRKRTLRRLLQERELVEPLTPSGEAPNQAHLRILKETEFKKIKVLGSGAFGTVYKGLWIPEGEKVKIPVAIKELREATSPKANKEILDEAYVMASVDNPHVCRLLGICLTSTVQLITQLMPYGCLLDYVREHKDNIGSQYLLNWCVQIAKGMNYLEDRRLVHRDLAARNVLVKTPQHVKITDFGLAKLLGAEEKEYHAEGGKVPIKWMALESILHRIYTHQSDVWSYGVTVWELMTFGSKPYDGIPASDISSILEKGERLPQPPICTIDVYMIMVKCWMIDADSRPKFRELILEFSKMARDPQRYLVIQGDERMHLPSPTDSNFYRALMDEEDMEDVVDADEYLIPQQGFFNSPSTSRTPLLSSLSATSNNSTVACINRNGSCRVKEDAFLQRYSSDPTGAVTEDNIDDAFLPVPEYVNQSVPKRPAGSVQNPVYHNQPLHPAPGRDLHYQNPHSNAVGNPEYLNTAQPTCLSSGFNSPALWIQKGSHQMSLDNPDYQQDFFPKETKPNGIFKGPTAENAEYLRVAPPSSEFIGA

Take `COc1cc2ncnc(Nc3cccc(Cl)c3)c2cc1OC` [AG1478]: the “number and size of hair follicles generated compared with control mice wounded only” value is “more and larger hair follicles; also recorded: more and larger HF”.
